Columns and labels:
CD-1 mice [1] = assay: Antinociception, tail flick warm water bioassay, intravenous administration; type: in vivo, ICR (CD-1) male out bred mice; details: 14 mg Kg^-1 Leucine[5]-Enkephalin (L, LG) or 20 mg Kg^-1 TPLENK (PG), out of 8 mice
Description: (§1) ICR (CD-1) male out bred mice (22-28 g, 4-5 weeks old, Harlan, Oxon, UK) were used. The animals were housed in groups of 5 in plastic cages in controlled laboratory conditions with ambient temperature and humidity maintained at ˜22° C. and 60% respectively with a 12-hour light and dark cycle (lights on at 8:00 and off at 20:00). Food and water were available ad libitum and the animals acclimatised for 5-7 days, prior to any experiments, in the Animal House, School of Pharmacy, University of London (London, UK). Animals were only used once and were acclimatised in the testing environment for at least 20 hours prior to testing. […]
Sodium Chloride 0.9% (pH 7.4) was used as the disperse phase. […] The administered volume was adjusted based on HPLC quantification of Leucine^[5]-Enkephalin and TPLENK and the body weight of each animal. […]
Antinociception was assessed in mice using the tail flick warm water bioassay (D'Amour and Smith 1941; Mogil et al. 1999). […] The response latency times, in centiseconds, recorded for each mouse to withdraw its tail by a “sharp flick” were recorded using a digital stopwatch capable of measuring 1/100th of a second. […] Mice not responding within 5 sec were excluded from further testing (Baseline cut-off=5 seconds) and the baseline latency was measured for all mice 2 hours prior testing. […]
All results were expressed as mean±standard error (i.e. SE: SD/√n). […]

CD-1 mice [2] = assay: Antinociception, tail flick warm water bioassay, oral administration; type: in vivo, ICR (CD-1) male out bred mice; details: 70 mg Kg^-1 Leucine[5]-Enkephalin (L, LG) or 100 mg Kg^-1 TPLENK (PG), out of 16 mice
Description: as §1, with “and 60% with a” for “and 60% respectively with a”, “Animals were fasted overnight for oral delivery experiments. Animals were only used” for “Animals were only used”, “were acclimatised at the testing” for “were acclimatised in the testing”
Double de-ionised filtered (0.2 μm, 33 mm Millex GP syringe driven filter unit, PES membrane for sterilisation of aqueous solutions) water was used as the disperse phase. […] The administered volume was adjusted based on HPLC quantification of LENK and TPLENK and the body weight of each animal. […]
Antinociception was assessed in mice using the tail flick warm water bioassay (D'Amour and Smith 1941; Mogil et al. 1999). […] The response latency times, in centiseconds, recorded for each mouse to withdraw its tail by a “sharp flick” were recorded using a digital stopwatch capable of measuring 1/100th of a second. […] Briefly, percent antinociception was calculated as 100% ×(test latency-baseline latency)/(10 seconds−baseline latency). […]

[3] = HPLC quantification of the peptide content of the formulations; type: physicochemical; details: formulations for oral administration, not filtered
Text: Formulations were not filtered.
The formulations were left overnight in the fridge and prior to intravenous administration were filtered (0.8 μm, 13 mm, Acrodisc Syringe Filter, Super Low Protein Binding Non-Pyrogenic Membrane, PALL Life Sciences). A clear filtrate was obtained for Leucine^[5]-Enkephalin and Leucine^[5]-Enkephalin and GCPQ and a translucent liquid was obtained for Palmitoylated Leucine^[5]-Enkephalin (TPLENK) and GCPQ. The administered intravenous volume of the formulations was set to a maximum of 0.2 ml per mouse. […] The maximum volume was dosed for placebo (NaCl, 0.9% w/v) receiving mice.
Polymer dispersions with Leucine^[5]-Enkephalin (LENK) or Palmitoylated Leucine^[5]-Enkephalin (TPLENK) were dissolved in mobile phase and analysed by HPLC. Samples were chromatographed over a reverse phase HPLC Sunfire C18 column (5 μm, 4.6 mm×250 mm) with a guard column attached [Waters Sunfire C18 (5 μm, 4.6 mm×10 mm)], using a Waters™ 515 HPLC pump connected to a Water™ 717 plus Autosampler with a Waters™ 486 Tunable Absorbance Detector. The mobile phase consisted of 82% 50 mM acetate buffer and 18% acetonitrile (pH 5.8). Unless otherwise indicated, samples were detected at 280 nm. The flow rate was set at 1 mL min^−1 at 35° C. and an injection volume of 40 μL was used. […] Empower software I was used for data analysis. […]

[4] = Pharmacokinetics after oral administration; plasma and brain Leucine[5]-Enkephalin by radioimmunoassay; type: in vivo, ICR (CD-1) male out bred mice; details: mice
Description: ICR (CD-1) male out bred mice (18-24 g, 4 weeks old, Harlan, Oxon, UK) were used. The animals were housed in groups of 5 in plastic cages in controlled laboratory conditions with ambient temperature and humidity maintained at ˜22° C. and 60% with a 12-hour light and dark cycle (lights on at 7:00 and off at 19:00). Food and water were available ad libitum and the animals acclimatised for 5-7 days prior to any experiments in the Animal House, School of Pharmacy, University of London (London, UK). Animals were fasted overnight for oral delivery experiments. Animals were only used once and were acclimatised at the testing environment for at least 1 hour prior to testing.
Syringes were attached to 19-20G commercial gavage needles (2-3 cm long) for oral administration.
Double de-ionised filtered (0.2 μm, 33 mm Millex GP syringe driven filter unit, PES membrane for sterilisation of aqueous solutions) water was used as the disperse phase for the oral formulations. […] All formulations were prepared by vortexing (WhirliMixer, Fisherbrand) and then by probe sonication (MSE Soniprep 150) with the instrument set at 50% of its maximum output for 15 minutes on ice. The formulations were left overnight in the fridge; the administered volume was set to a maximum of 0.2 ml per mouse. The administered volume was adjusted based on the HPLC quantification of LENK and TPLENK and the body weight of each animal. The maximum volume was dosed for placebo (H2O) receiving mice.
Blood samples (0.4-0.8 mls per mouse) were collected into a chilled syringe and transferred into evacuated sterile spray coated (with tripotassium ethylenediamine tetraacetic acid—3.6 mg) medical grade PET tubes (3×75 mm K3E Vacutainer©, BD Biosciences, UK) and maintained on ice (4° C.) until centrifugation. There is no dilution effect in spray coated tubes. Plasma was obtained as the supernatant after centrifugation of blood samples at 1,600 g or 4800 rpm for 15 minutes at 4° C. with a Hermle Z323 centrifuge (Hermle Laborteschink GmbH, Germany) and was pipetted into 1.5 mL centrifuge tubes and stored at −70° C. for later use.
Brain tissue minus the cerebellum (0.25-0.35 g) recovered from mice was immediately frozen in liquid nitrogen (−80° C.) until they were homogenised. The brain weight was recorded for each individual animal. After thawing tissues were boiled for 10 minutes in 30 volumes of a mixture of 1M of acetic acid, 0.02M of hydrochloric acid and 0.1% 2-mercaptoethanol (De Ceballos et al. 1991; Ahmed et al. 1994; Wu et al. 2005). The tissues were homogenised with 80 strokes per minute for half a minute with a glass 3 mL homogeniser (Jencons-PLS, England). […]

Compound: CC(C)C[C@H](NC(=O)[C@H](Cc1ccccc1)NC(=O)CNC(=O)CNC(=O)[C@@H](N)Cc1ccc(O)cc1)C(=O)O [L, Leucine^[5]-Enkephalin]
- analgesic responders (response 2 or more times the baseline latency) (CD-1 mice [1]): 37.5%
- mice reaching maximal possible latencies (CD-1 mice [1]; cut-off 10 seconds): 0%
- analgesic responders (response 2 or more times the baseline latency) (CD-1 mice [2]): 31.25%
- mice reaching maximal possible latencies (CD-1 mice [2]; cut-off 10 seconds): 6.25%
- peptide content of the formulations (HPLC) [3]: 99.9%
- time of peak Leucine[5]-Enkephalin concentration in the brain tissue ([4]; 70 mg Kg^-1 Leucine[5]-Enkephalin (L, LG) or 100 mg Kg^-1 TPLENK (PG), brain): 4 h
- peak Leucine[5]-Enkephalin concentration in the brain tissue ([4]; 70 mg Kg^-1 Leucine[5]-Enkephalin (L, LG) or 100 mg Kg^-1 TPLENK (PG), brain, at 4 hours): 0.695 ng/g
- peak plasma concentration of Leucine[5]-Enkephalin ([4]; 70 mg Kg^-1 Leucine[5]-Enkephalin (L, LG) or 100 mg Kg^-1 TPLENK (PG), plasma): 29.3 ng 10^−1mL^−1
- Tmax ([4]; male, ICR (CD-1), mouse, 70 mg Kg^-1 Leucine[5]-Enkephalin, plasma, read-out: time of peak plasma concentration of Leucine[5]-Enkephalin): 1 h

Source: patent US8920819B2, “Delivery of hydrophilic drugs” (University College London, priority 2009, dated 2014)
